We go through three substances from US20060134719A1, “Novel serine protease” (priority 2002, published 2006).

*: point of attachment. AMC = Cc1cc(=O)oc2cc(N*)ccc12; Boc = CC(C)(C)OC(=O)*; OBn = c1ccc(CO*)cc1

The target of this assay is T1, purified protein solution (signal-FLAG-ARS-extracellular protein) (Homo sapiens, UniProt Q7Z410, INS90FVSSFQKTELEASCVGCSVLNYRDGNSSVLVHFQ).
T1 construct: made in house; host or cells: HEK293-EBNA
T1 sequence (Q7Z410 with tags, fused parts or gaps INS90FVSSFQKTELEASCVGCSVLNYRDGNSSVLVHFQ): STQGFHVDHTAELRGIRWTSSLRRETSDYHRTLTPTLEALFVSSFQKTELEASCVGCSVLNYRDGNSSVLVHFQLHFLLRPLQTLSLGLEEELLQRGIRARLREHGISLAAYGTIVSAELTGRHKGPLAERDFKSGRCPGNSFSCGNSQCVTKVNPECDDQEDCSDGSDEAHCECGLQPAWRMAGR
T1 sequence (Q7Z410 with tags, fused parts or gaps): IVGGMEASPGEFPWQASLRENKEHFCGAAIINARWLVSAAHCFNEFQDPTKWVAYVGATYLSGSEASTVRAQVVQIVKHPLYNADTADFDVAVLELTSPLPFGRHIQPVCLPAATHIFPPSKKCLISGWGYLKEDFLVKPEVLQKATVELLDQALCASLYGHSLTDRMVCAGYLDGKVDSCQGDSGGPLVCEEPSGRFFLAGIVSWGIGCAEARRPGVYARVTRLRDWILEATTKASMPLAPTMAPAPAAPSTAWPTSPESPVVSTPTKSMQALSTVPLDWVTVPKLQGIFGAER
Description: Enzyme activity of purified recombinant protein using synthetic peptides. In kind it is biochemical. The following applies: substrate 200 μM or 400 μM, ammonium hydrogen carbonate buffer, 37° C. for one hour; versus buffer control. The procedure: Using a cell expressing the signal-FLAG-ARS-extracellular protein, a recombinant protein secreted into the liquid culture of the cell was extracted and purified. Specifically, the transfected HEK293EBNA cells were incubated by the same method as in Example 7 to about 80% confluence, from which the culture medium was then removed. Instead, a culture medium containing 4% serum was added, for further incubation under conditions of 37° C. and a carbon dioxide concentration of 5% for another 4 days. The culture supernatant was recovered 4 days later; filtered through a 0.22-μm filter (Zartor); and adsorbed on an ANTI-FLAG M2-AGAROSE AFFINITY GEL (Sigma) column equilibrated with TBS buffer by a routine method. Subsequently, about 50 ml of the TBS buffer was used for washing the column. Then, 6 ml of […] glycine hydrochloride solution of pH 2.2 was passed through the column to obtain each 1 ml fraction. To the separated fractions, 100 μl of 1 M Tris-HCl of pH 8 was immediately added to adjust the pH. The individual fractions thus obtained were confirmed by Western blotting using an antibody against the FLAG tag added to the N terminus (mouse anti-FLAG monoclonal antibody M2; Sigma). Specifically, the eluted fractions were electrophoresed on SDS/4% to 20% acrylamide gel (Daiichi Pure Chemicals Co., Ltd.) (under reducing conditions) and then transferred on PVDF membrane (Millipore) using a blotting apparatus. After adding Block Ace (DAINIPPON PHARMACEUTICAL CO., LTD.) for blocking to the transferred PVDF membrane, a biotinylated mouse anti-FLAG monoclonal antibody (M2; Sigma) and horseradish peroxidase-labeled streptoavidin (Amersham Pharmacia) were sequentially reacted. After reaction, it was confirmed that which eluted fractions contained the protein, using ECL Western blotting detection system (Amersham Pharmacia).
Using a synthetic peptides which have the C terminus labeled wit MCA (4-methyl-coumaryl-7-amide) by the same method as in Example 8, the cleavage activity of the enzyme purified in Example 10 was detected. Unless otherwise described, the method described in a paper (Yasuoka, S. et al., Am. J. Respir. Cell Mol Biol., Vol. 16, 300-308, 1997) was used. Specifically, using a synthetic peptides (Peptide Institute, Inc.) which have the C terminus labeled with MCA as substrates, the substrates were diluted with ammonium hydrogen carbonate buffer to become a final concentration of 200 μM or 400 μM in a 96-well plate. After the purified protein solution obtained in Example 10 or the ammonium hydrogen carbonate buffer as a control was added to the substrate solutions, the resulting mixtures were incubated at 37° C. for one hour. Subsequently, the fluorescence of AMC (7-amino-4-methyl-coumarin) released from the synthetic peptide by enzymatic cleavage was measured at a wavelength of 460 nm for measurement, using an excitation wavelength of 390 nm with a fluorescent plate reader (SAFIRE manufactured by TECAN). In FIG. 1, the open bar expresses buffer control, while the solid bar expresses the case of using purified protein solution. The first bar represents the case of using Boc-Glu(OBzl)-Ala-Arg-MCA as a substrate; the second bar represents the case of using Boc-Phe-Ser-Arg-MCA as a substrate; the third bar represents the case of using Boc-Leu-Ser-Thr-Arg-MCA as a substrate; the fourth bar represents the case of using Boc-Gln-Arg-Arg-MCA as a substrate; the fifth bar represents the case of using Suc-Ala-Ala-Pro-Phe-MCA as a substrate; the sixth bar represents the case of using Suc-Ala-Pro-Ala-MCA as a substrate; the seventh bar represents the case of using Boc-Glu-Lys-Lys-MCA as a substrate; the eighth bar represents the case of using Boc-Leu-Lys-Arg-MCA as a substrate; the ninth bar represents the case of using Boc-Leu-Gly-Arg-MCA as a substrate; and the tenth bar represents the case of using Boc-Asp(OBzl)-Pro-Arg-MCA as a substrate.

For Boc-Glu(OBn)-Ala-Arg-{AMC}, the “cleavage of synthetic peptide by purified protein solution (fluorescence of released AMC)” value is “showed the cleavage activities”.
With Boc-Gln-Arg-Arg-{AMC} the entry was “showed the cleavage activities”; with Boc-Phe-Ser-Arg-{AMC}, “showed the cleavage activities”.
